The compounds below were run against T1, human recombinant OX2 (hOX2) receptor expressed in CHO cells (Homo sapiens, UniProt O43614) (assay: IP-1 accumulation assay (IP-One HTRF) in hOX2-CHO cells). Conditions: 60 min at 37° C., 11 points CRC, response as % of maximal OX-A response.
T1 construct: host or cells: CHO cells (hOX2-CHO)
T1 sequence (O43614 1-444): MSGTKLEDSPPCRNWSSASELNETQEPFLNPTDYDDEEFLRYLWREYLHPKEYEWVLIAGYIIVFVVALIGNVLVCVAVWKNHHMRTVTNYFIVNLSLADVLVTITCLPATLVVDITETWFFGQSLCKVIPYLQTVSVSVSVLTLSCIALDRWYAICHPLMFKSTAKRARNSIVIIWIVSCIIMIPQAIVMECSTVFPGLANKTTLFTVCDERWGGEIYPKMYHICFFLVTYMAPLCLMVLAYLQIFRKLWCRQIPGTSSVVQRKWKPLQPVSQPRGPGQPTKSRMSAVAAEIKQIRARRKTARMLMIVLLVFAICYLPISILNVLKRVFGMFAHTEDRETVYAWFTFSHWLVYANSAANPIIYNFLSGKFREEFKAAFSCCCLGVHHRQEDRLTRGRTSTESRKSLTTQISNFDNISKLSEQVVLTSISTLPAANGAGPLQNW
Format: cell-based
Method: The accumulation of Inositol-1 Monophosphate (IP-1) was measured using IP-One HTRF® Terbium cryptate based assay (Cisbio) in human recombinant OX1 (hOX1) and at OX2 (hOX2) receptors expressed in CHO cells (DiscoverX) according to the manufacturer's instructions for cells tested in suspension.
hOX1-CHO and hOX2-CHO cells were seeded into white 384-well plates at a density of 20,000 cells/well in Hank's Balanced Salt Solution (HBSS) containing 20 mM HEPES pH 7.4, 50 mM, LiCl and 0.1% and Bovine Serum Albumin (BSA).
Compounds of the present disclosure were tested in a 11 points concentration response curve (CRC) serially diluted in neat DMSO at 200 fold concentrations and added by Echo acoustic liquid handling (Labcyte) to the cells (0.5% DMSO final in the assay). After 60 min of incubation at 37° C. detection reagents, IP1-d2 tracer and anti-IP1-cryptate were diluted in lysis buffer according to the manufacturer's descriptions and added to the cells.
Following 60 min incubation at room temperature, time-resolved fluorescence (HTRF) was measured at 615 nm and 665 nm by Envision Multilabel reader (Perkin Elmer) and the HTRF ratio (A665/A615x104) was calculated.
The IP-1 accumulation response was expressed as percentage of the maximal OX-A response.
Curve fitting and EC50 estimations were carried out using a four-parameter logistic model using XLfit Software. Mean data of EC50 are calculated from at least two independent experiments performed in duplicates.
In the Tables, below Category A corresponds to compounds displaying an […]<100 nM, Category B between 100 nM and 1,000 nM, Category C between 1,000 nM and 10,000 nM and Category D above 10,000 nM.

Question: With Cc1cc(C(CNS(C)(=O)=O)CO[C@H]2CC[C@@H](c3cccc(F)c3)CC2)c(=O)n(C)c1 (single isomer, unassigned; isomer 2) [Example 5d, (S or R) N-[2-(1,5-dimethyl-2-oxo-1,2-dihydropyridin-3-yl)-3-{[(CIS)-4-(3-fluorophenyl)cyclohexyl]oxy}propyl]methanesulfonamide—Isomer 2] as the compound, how does the EC50 read?
Answer: Its EC50 is 100 to 1000 nM.

Question: Cc1cc(C)[n+]([O-])c(C(CNS(C)(=O)=O)CO[C@H]2CC[C@@H](c3ccccc3)CC2)c1 (single isomer, unassigned; isomer 2) [Example 5l, (S or R) 2-[1-methanesulfonamido-3-{[(CIS)-4-phenylcyclohexyl]oxy}propan-2-yl]-4,6-dimethylpyridin-1-ium-1-olate—Isomer 2] was tested. Which EC50 did it give?
Answer: Its EC50 is 1000 to 10000 nM.

Question: For Cc1cc(C(CNS(=O)(=O)CF)CO[C@H]2CC[C@@H](c3cccc(F)c3)CC2)c(=O)n(C)c1 (single isomer, unassigned; isomer 2) [Example 5o, (S or R) N-[2-(1,5-dimethyl-2-oxo-1,2-dihydropyridin-3-yl)-3-{[(CIS)-4-(3-fluorophenyl)cyclohexyl]oxy}propyl]-1-fluoromethanesulfonamide—Isomer 2], which EC50 is on record?
Answer: The EC50 was 100 to 1000 nM.

Question: How did the EC50 turn out when Cc1cc(C(CNS(C)(=O)=O)CO[C@H]2CC[C@@H](c3cccc(F)c3)CC2)c(=O)n(C(F)F)c1 (single isomer, unassigned; isomer 2) [Example 5z, (S or R) N-[2-[1-(difluoromethyl)-5-methyl-2-oxo-1,2-dihydropyridin-3-yl]-3-{[(CIS)-4-(3-fluorophenyl)cyclohexyl]oxy}propyl]methanesulfonamide—Isomer 2] was run?
Answer: The EC50 was 1000 to 10000 nM.

Question: Which EC50 does the source give for Cc1cccn(C(CO[C@H]2CC[C@@H](c3ccccc3)CC2)C(C)NS(C)(=O)=O)c1=O (single isomer, unassigned; isomer 3) [Example 3c, (2S or 2R) and (3R or 3S) N-[3-(3-methyl-2-oxo-1,2-dihydropyridin-1-yl)-4-{[(CIS)-4-phenylcyclohexyl]oxy}butan-2-yl]methanesulfonamide—Isomer 3] here?
Answer: Its EC50 is > 10000 nM.

Question: For Cc1cccn(C(CO[C@H]2CC[C@@H](c3ccccc3)CC2)C(C)NS(C)(=O)=O)c1=O (single isomer, unassigned; isomer 4) [Example 3d, (2R or 2S) and (3S or 3R) N-[3-(3-methyl-2-oxo-1,2-dihydropyridin-1-yl)-4-{[(CIS)-4-phenylcyclohexyl]oxy}butan-2-yl]methanesulfonamide—Isomer 4], which EC50 is on record?
Answer: The EC50 was 1000 to 10000 nM.

Question: With CS(=O)(=O)NCC(CO[C@H]1CC[C@@H](c2ccccc2)CC1)n1ccccc1=O (stereo partly drawn) [Example 1, N-[2-(2-oxo-1,2-dihydropyridin-1-yl)-3-{[(CIS)-4-phenylcyclohexyl]oxy}propyl]methanesulfonamide] as the compound, how does the EC50 read?
Answer: Its EC50 is 1000 to 10000 nM.

Question: For Cc1cccn(C(CNS(C)(=O)=O)CO[C@H]2CC[C@@H](c3ccccc3)CC2)c1=O (stereo partly drawn) [Example 1c, N-[2-(3-methyl-2-oxo-1,2-dihydropyridin-1-yl)-3-{[(CIS)-4-phenylcyclo-hexyl]oxy}propyl] methane-sulfonamide], which EC50 is on record?
Answer: The EC50 was 100 to 1000 nM.

Question: CCc1cccn(C(CNS(C)(=O)=O)CO[C@H]2CC[C@@H](c3ccccc3)CC2)c1=O (stereo partly drawn) [Example 2, N-[2-(3-ethyl-2-oxo-1,2-dihydropyridin-1-yl)-3-{[(CIS)-4-phenylcyclohexyl]oxy}propyl]methanesulfonamide] was tested. Which EC50 did it give?
Answer: Its EC50 is 1000 to 10000 nM.

Question: With Cc1ccn(C(CNS(C)(=O)=O)CO[C@H]2CC[C@@H](c3ccccc3)CC2)n1 (stereo partly drawn) [Example 2aa, N-[2-(3-methyl-1H-pyrazol-1-yl)-3-{[(CIS)-4-phenylcyclohexyl]oxy}propyl]methanesulfonamide] as the compound, how does the EC50 read?
Answer: Its EC50 is > 10000 nM.

Question: For Cc1cncn(C(CNS(C)(=O)=O)CO[C@H]2CC[C@@H](c3ccccc3)CC2)c1=O (stereo partly drawn) [Example 2aj, N-[2-(5-methyl-6-oxo-1,6-dihydropyrimidin-1-yl)-3-{[(CIS)-4-phenylcyclohexyl]oxy}propyl]methanesulfonamide], which EC50 is on record?
Answer: Its EC50 is > 10000 nM.
